Results taken from patent US20240041773A1, “POWDER MIXING DEVICE, AND USES THEREOF” (University of Connecticut, priority 2022, published 2024).

Columns and labels:
[1] = Tribocharging of ibuprofen powder in V blenders, specific charge measured by Faraday cup; assay type: physicochemical
Procedure: Ibuprofen was chosen as the model blending powder 140 due to its ability to charge excessively and was evaluated in all the V blenders 110. The V blender materials were procured from McMaster-Carr (https://www.mcmaster.com/) and was fabricated at the University of Connecticut (https://uconn.edu/). Ibuprofen powder 140 was spread into thin layers onto aluminum foil and equilibrated overnight at 16% RH along with the V blender 110 before the blending experiments. Before starting the experiment, initial charge was measured using Faraday cup 200. The blender 110 was charged with the powder 140 and blended in all the blenders for different time intervals. After completion of the tribocharging experiment powder was collected in the Faraday cup 200 connected to a nano-coulombmeter to measure the charge, which was reported as charge to mass ratio, also known as specific charge (nC/g) (FIG. 9). All experiments were done in triplicate at room temperature and at 16% RH. Similar experiments were also performed using ibuprofen—excipient blends to understand equipment capability to mitigate electrostatic charging in other powders. For this study, Ibuprofen—Sugar sphere (500/600 μm) blends were evaluated using stainless steel (SS), stainless steel-PVC (SS-PVC), and PVC blenders. Sugar spheres is widely used excipient for sustained-release pellet formulations used in oral dosage forms therefore, selected for this study.
With reference to FIGS. 10-16, to study triboelectrification, a measured quantity 50 g of ibuprofen was loaded into the V blender 110 which were rotated at 13 rpm for different time intervals. The experiments were performed for different time intervals such as 2, 10, 20, 30, and 40 mins (respectively graphed as bars A-E in FIGS. 10-14) at 13 rpm and 16% relative humidity. […] Final charge with Al-PVC blender 110 of FIG. 6 as shown with the different graphed bars 12A-12E of the bar graph of FIG. 12 was negative in polarity, e.g., due to more interaction of ibuprofen with Aluminum. It can be observed after comparing specific charge from three blenders 110, the Al-PVC blender 110 of FIG. 6 can reduce charge (FIGS. 10-12).
Additionally, the graphs of these FIGS. are showing the charge in nC/g which might appear small but industrial manufacturing involves large scale handling of powders which leads to huge electrostatic charging.

[2] = Powder adhesion to blender wall (initial powder weight minus powder recovered); assay type: physicochemical
Procedure: Reference will now be to FIGS. 17A, 17B and 18. To investigate the impact of using the surface of the blender on powder adhesion to the blender material, the total powder adhesion was calculated by subtracting the amount of powder recovered and initial powder weight. […] This may be the result of significant adhesive forces between the blender wall and ibuprofen particles. The blender wall has an opposite charge as compared to ibuprofen particles therefore powder particles becomes attracted to the blender wall and deposit there due to image forces. Additionally, bipolar charging may occur due to this high level of powder adhesion which could further decrease the number of particle-blender wall collisions, further changing the powder charging dynamics.

SMILES: CC(C)Cc1ccc(C(C)C(=O)O)cc1 (stereo not shown) [Ibuprofen]
- charge accumulated compared with the PVC and Al blenders ([1]; Al-PVC blender, 13 rpm, 16% RH): significantly less
- polarity of final charge ([1]; Al-PVC blender, 50 g, 13 rpm, 16% RH): negative
- polarity of charge acquired ([1]; Aluminum blender, 50 g, 13 rpm, 2-40 mins, 16% RH): negatively
- polarity of charge acquired ([1]; PVC blender, 50 g, 13 rpm, 2-40 mins, 16% RH): positively
- polarity of charge acquired ([1]; PVC blender, 50 g, 13 rpm, 2-40 mins, 16% RH, listed as ibuprofen): positive charge
- time of charge saturation ([1]; blending at 13 rpm, 16% RH): 30 min
- polarity of charge acquired ([1]; stainless steel and PVC blender (SS-PVC)): negative charge
- polarity of charge acquired ([1]; stainless steel blender (cGMP material)): negative charge
- powder adhesion to the blender walls ([2]; dual-material blenders (Al-PVC, SS-PVC)): decrease in the powder adhesion
- powder adhesion to the blender walls ([2]; metal or insulator (single-material) blenders): significant adhesion
